Measured values as given in patent publication US9101567B2, “Suppression of cancer growth and metastasis using nordihydroguaiaretic acid derivatives with 7-hydroxystaurosporine” (The Johns Hopkins University, priority 2010, dated 2015).
Values joined by “and” are separate entries in the source; they are usually repeats but may differ in a detail not shown here. Equal entries are not always repeated.

How the values were obtained:
[1] = tested on: caspase-3 and 9; test: Western blotting of cleaved caspase-3 and 9 in LNCaP cells; assay type: cell-based, human; settings: 17 hrs, M4N 80 μM, etoposide 10 μM, rapamycin 10 μM, UCN-01 2 μM
Procedure: (§1) The sample volumes were adjusted by the total protein amount. Protein assay was performed by Bio-Rad Protein Assay (Bio-Rad Laboratories, Inc. Hercules, Calif.). The samples were resolved by the standard SDS-polyacrylamide gel electrophoresis and transferred to nitrocellulose membrane (Amersham Biosciences, Bjorkgatan, Sweden). The membranes were blocked with skim milk, and incubated with primary antibodies at 4° C. overnight and then with secondary antibody conjugated with horse radish peroxidase at room temperature for 2 hrs. The signals were detected by western blot chemiluminescence reagent plus (New England Nuclear Life Science Products, Boston, Mass.).
(§2) The efficacy of the combination treatment of M4N with three anticancer drugs, etoposide, rapamycin, and UCN-01 to induce cell death was examined for LNCaP human prostate cancer cells with TUNEL assay. We chose these anticancer drugs trying to diversify the mechanisms in which the anticancer drugs work (43-45). […] Additionally the effect of caspase-3 and 7 inhibitor, zDEVD-fmk on the cell death induced by the combination treatment was examined (FIG. 1E).

[2] = tested on: caspase-7; test: Western blotting of caspase-7 cleavage in LNCaP cells; assay type: cell-based, human; settings: 17 hrs, M4N 80 μM, etoposide 10 μM, rapamycin 10 μM, UCN-01 2 μM
Procedure: as §1, §2

[3] = tested on: caspase-7; test: Enzymatic assay for caspase-7 in extracts of treated LNCaP cells; assay type: cell-based, human; settings: extracts of LNCaP cells treated for 13 hrs
Procedure: The enzymatic assay specific for caspase-7 was performed using a CaspSELECT caspase-7 immunoassay kit (BioVision, Mountain View, Calif.). This assay is based on the […] assay with DEVD-afc. Since DEVD-afc can be a substrate for either caspase-3 or 7, only caspase-7 is selected from cell extracts by anti-caspase-7 antibody which is coated on microtiter plates. Briefly the microtiter plates were coated with anti-caspase-7 antibody overnight at 4 C and blocked with a blocking solution for 30 minutes at room temperature. The cell extracts were applied to the microtiter plates. After washing the microtiter plates, the substrate […] was added to the plates and incubated for about three hours. The fluorescence was measured by a microtiter plate fluorescence reader Infinite 200 (Tecan, Switzerland).
as §2

[4] = tested on: OC24 human ovarian cancer cells; test: OC24 ovarian cancer-bearing nude mice: survival, ascites fluid, abdominal tumors; assay type: in vivo, nude mice (nu/nu); settings: for survival rate at 45 days after treatment: OC24 tumor-bearing nude mice, i.v. 1 mg M4N and/or 88.4 μg UCN-01 per shot; for Tumor Weight: abdominal tumors of individual OC24 tumor-bearing mice; for Tumor Weight / Weight of the Ascites Fluid: at the time of death; for Weight of the Ascites Fluid: individual OC24 tumor-bearing mice, data compiled at 45 days after tumor inoculation
Procedure: (§3) T-cell deficient male nude mice (nu/nu) were obtained from Charles River Laboratories (Wilmington, Mass.). […] For drug combinations (M4N/etoposide, M4N/rapamycin, and M4N/UCN-01), etoposide, rapamycin, or UCN-01 powder was further added to M4N in CPE 25/30 to make a final concentration of M4N (10 mg/ml) respectively with etoposide (4 mg/ml), rapamycin (3.75 mg/ml), or UCN-01 ([…]) in CPE 25/30 formulation. These drugs were intravenously injected into the tail vein of mice at the daily dose of 0.1 ml per mouse. Therefore dosages of each injection were 1 mg/shot (for M4N), 0.4 mg/shot (for etoposide), 0.375 mg/shot (for rapamycin), and 88.4 μg/shot (for UCN-01). The drug injections were performed once every day; beginning at day 3 until day 31 after tumor inoculation for the combination treatment with either etoposide or rapamycin and until day 25 after tumor inoculation for the combination treatment with UCN-01. After this the drugs were injected once a week for etoposide/rapamycin combination treatment and once every three days until day 35 for UCN-01 combination treatment. Protocols used in this study were approved by the Institutional Animal Care and Use Committee at the Johns Hopkins University, Department of Biology.
(§4) OC24 cells growing subconfluently were collected into the tissue culture medium without fetal bovine serum and antibiotics. The cell concentration was adjusted by the same medium. The cell solution containing 5×10^4 cells was injected into the peritoneal cavity of each nude mouse at the day 0. The drug treatment started from day 3. For the estimation of the effect of the drug treatment, the volume of ascites fluids and of abdominal tumors was measured.
Next we examined if this combination treatment could improve the anticancer efficacy of M4N in animal experiments. In this experiment we used OC24 ovarian cancer-bearing nude mice as a model system. OC24 cells are very aggressive cancers and have the ability to kill essentially all the mice when only ten thousand cancer cells are inoculated intraperitoneally into a mouse. […] All the mice without any treatments died in less than 26 days after the tumor inoculation. Meanwhile certain percentages of the mice survived in the all treatment groups (M4N alone, UCN-01 alone, or M4N/UCN-01 combination) beyond 45 days after treatment (the time of preparation of the current manuscript). The survival rate at 45 days after treatment was 33%, 20%, and 42% for M4N alone, UCN-01 alone, or M4N/UCN-01 combination group respectively.
To further evaluate the anticancer efficacy of M4N/UCN-01 combination treatment, we next measured the volume of the ascites fluid and that of abdominal tumors. The ascites fluid was collected from the peritoneal cavity at the time of death of tumor-bearing mice. Abdominal tumors are usually located in the vicinity of the area where the tumors were inoculated by the needle. […] The data was compiled at 45 days after tumor inoculation. Therefore there were still several mice who still survived from tumor burden.

[5] = Body weight change in OC24 tumor-bearing mice; assay type: in vivo, nude mice (nu/nu); settings: individual mice
Procedure: as §3, §4
Once the ascites fluid starts to accumulate in the peritoneal cavity, it sometimes constitutes a significant portion of the body weight.
The increase of the body weight of deceased mice at the time of the death over the initial weight was 37.8% (SD=18.9%, N=19) while the increase of the body weight of alive mice at days after tumor inoculation over the initial weight was 9.5% (SD=7.5%, N=6). The difference of two groups is statistically significant by t-test (0.2%). […] Therefore the body weight change can be used as an indicator to estimate the volume of ascites and thus overall condition of the mice. […] The body weight increased slightly after day 26. However it hasn't reached the peak weight achieved at day 22 (30.5 g). […] The pictures show the apparent decrease of the volume of abdominal area from day 22 to day 29 through day 26. This almost certainly indicated the reduction of ascites fluid. […] The observations depicted in FIGS. 8 B and 8C indicate that the combination treatment of M4N with UCN-01 can suppress tumor burden even after the tumor size has already reached to a certain extent. Discussion

**Q.** What does the source list for `COc1ccc(C[C@@H](C)[C@@H](C)Cc2ccc(OC)c(OC)c2)cc1OC` [M4N, Tetra-O-methyl nordihyroguaiaretic acid]?
**A.** expression of cleaved caspase-3 and 9 [1]: didn't induce the cleavage; caspase-7 cleavage products (20 and 34 kDa) [2]: small amount; caspase-7 activation (enzymatic activity) [3]: only a small amount; survival rate at 45 days after treatment [4]: 33%; Tumor Weight [4]: 101.3 mg and <100 mg and 360.5 mg and 69 mg; Weight of the Ascites Fluid [4]: 4.4 g and Living (2×) and 7.8 g and 5.8 g and 16.1 g; Body weight ([5]; Day No. 0 (10-Dec)): 24.1 grams and 22.9 grams and 23.5 grams and 22.3 grams and 20 grams and 21.4 grams; Body weight ([5]; Day No. 2 (12-Dec)): 22.3 grams and 20.8 grams and 22.9 grams and 21.5 grams and 19.1 grams and 20.9 grams; Body weight ([5]; Day No. 3 (13-Dec)): 22.8 grams and 21.2 grams and 23.4 grams and 20.9 grams and 20.2 grams and 20.5 grams; Body weight ([5]; Day No. 8 (18-Dec)): 30.1 grams and 25.8 (31st Dec) grams; Body weight ([5]; Day No. 12 (22-Dec)): 23.9 grams and 21.9 grams and 27.7 grams (2×) and 29.8 (Euthanized on 1st Jan) grams; Body weight ([5]; Day No. 22 (1-Jan)): 23.2 grams and 21.5 grams and 28 grams and 38.8 grams; Body weight ([5]; Day No. 26 (5-Jan)): 24.1 grams and 22.5 grams and 28.1 grams; Body weight ([5]; Day No. 29 (8-Jan)): 26.2 grams and 22.7 grams; Body weight ([5]; Day No. 32 (11-Jan)): 25.5 grams and 22.5 grams; Body weight ([5]; Day No. 33 (12-Jan)): 25.3 grams and 23.1 grams; Body weight ([5]; Day No. 34 (13-Jan)): 25.3 grams and 22.9 grams; Body weight ([5]; Day No. 35 (14-Jan)): 24.8 grams and 22 grams; Body weight ([5]; Day No. 36 (15-Jan)): 25.7 grams and 22.4 grams; Body weight ([5]; Day No. 37 (16-Jan)): 25.8 grams and 22.6 grams; Body weight ([5]; Day No. 38 (17-Jan)): 25.9 grams and 22.9 grams; Body weight ([5]; Day No. 39 (18-Jan)): 26.3 grams and 22.7 grams; Body weight ([5]; Day No. 40 (19-Jan)): 26.4 grams and 22.9 grams; Body weight ([5]; Day No. 41 (20-Jan)): 26.4 grams and 23.1 grams; Body weight ([5]; Day No. 42 (21-Jan)): 25.3 grams and 23.2 grams; Body weight ([5]; column head Day No. 25 (4-Jan)): 37.5 grams; Body weight ([5]; column head Day No. 28 (7-Jan)): 27.9 grams

**Q.** Which “expression of cleaved caspase-3 and 9” value [1] does the source give for `CN[C@@H]1C[C@H]2O[C@@](C)([C@@H]1OC)n1c3ccccc3c3c4c(c5c6ccccc6n2c5c31)C(=O)N[C@H]4O` [UCN-01, 7-hydroxystaurosporine] here?
**A.** great expression

**Q.** And the “caspase-7 cleavage products (20 and 34 kDa)” value [2]?
**A.** great amount

**Q.** And the “caspase-7 activation (enzymatic activity)” value [3]?
**A.** to some extent

**Q.** And the “survival rate at 45 days after treatment” value [4]?
**A.** 20%

**Q.** And the “Tumor Weight” value [4]?
**A.** No Tumor (2×) and 360.5 mg and 87 mg

**Q.** And the “Weight of the Ascites Fluid” value [4]?
**A.** 7.4 g and 15 g and Living and 14.3 g and 2.9 g

**Q.** What about the Body weight ([5]; Day No. 0 (10-Dec)) of the same molecule?
**A.** 22.8 grams and 22.1 grams and 23.4 grams and 21.6 grams and 19.6 grams and 20.6 grams

**Q.** And the Body weight ([5]; Day No. 2 (12-Dec))?
**A.** 22.6 grams (2×) and 18.3 grams and 20.8 grams

**Q.** And the Body weight ([5]; Day No. 3 (13-Dec))?
**A.** 23.4 grams and 21.8 grams and 35.7 grams and 30.5 grams and 22.9 grams and 21.9 Died due to injection & not the tumor (28th Dec) grams

**Q.** And the Body weight ([5]; Day No. 8 (18-Dec))?
**A.** 39.5 grams and 35.9 grams and 26.2 grams

**Q.** What about the Body weight ([5]; Day No. 12 (22-Dec)) of the same molecule?
**A.** 24.4 grams and 30.7 grams and 38.4 (6th Jan) grams and 27.3 grams

**Q.** What about the Body weight ([5]; Day No. 22 (1-Jan)) of the same molecule?
**A.** 24.8 grams and 29.5 grams

**Q.** What about the Body weight ([5]; Day No. 26 (5-Jan)) of the same molecule?
**A.** 25.5 grams

**Q.** What about the Body weight ([5]; Day No. 29 (8-Jan)) of the same molecule?
**A.** 27.9 grams

**Q.** And the Body weight ([5]; Day No. 32 (11-Jan))?
**A.** 27.6 grams

**Q.** And the Body weight ([5]; Day No. 33 (12-Jan))?
**A.** 27.4 grams

**Q.** What about the Body weight ([5]; Day No. 34 (13-Jan)) of the same molecule?
**A.** 27.5 grams

**Q.** What about the Body weight ([5]; Day No. 35 (14-Jan)) of the same molecule?
**A.** 26.5 grams

**Q.** And the Body weight ([5]; Day No. 36 (15-Jan))?
**A.** 27.2 grams

**Q.** What about the Body weight ([5]; Day No. 37 (16-Jan)) of the same molecule?
**A.** 27.3 grams

**Q.** And the Body weight ([5]; Day No. 38 (17-Jan))?
**A.** 27.1 grams

**Q.** What about the Body weight ([5]; Day No. 39 (18-Jan)) of the same molecule?
**A.** 27.4 grams

**Q.** And the Body weight ([5]; Day No. 40 (19-Jan))?
**A.** 27.4 grams

**Q.** What about the Body weight ([5]; Day No. 41 (20-Jan)) of the same molecule?
**A.** 27.8 grams

**Q.** And the Body weight ([5]; Day No. 42 (21-Jan))?
**A.** 26.7 grams

**Q.** What about the Body weight ([5]; column head Day No. 18 (28-Dec)) of the same molecule?
**A.** 22.5 grams
